The values that follow come from patent US8598155B2, “Imidazo[5,1-f][1,2,4]triazines for the treatment of neurological disorders” (Pfizer Inc., priority 2011, dated 2013).

For this assay, the target named is human full-length PDE2A3 enzyme (Homo sapiens (Human), UniProt O00408). Particulars: read-out: IC50 (assay validation control); PDE2A3 SPA validation; IC50 values obtained were within 3× of literature values.

Structures are written as SMILES.

What is called IC50 is the midpoint of a concentration-inhibition curve.

Sequence of human full-length PDE2A3 enzyme (O00408 whole entry): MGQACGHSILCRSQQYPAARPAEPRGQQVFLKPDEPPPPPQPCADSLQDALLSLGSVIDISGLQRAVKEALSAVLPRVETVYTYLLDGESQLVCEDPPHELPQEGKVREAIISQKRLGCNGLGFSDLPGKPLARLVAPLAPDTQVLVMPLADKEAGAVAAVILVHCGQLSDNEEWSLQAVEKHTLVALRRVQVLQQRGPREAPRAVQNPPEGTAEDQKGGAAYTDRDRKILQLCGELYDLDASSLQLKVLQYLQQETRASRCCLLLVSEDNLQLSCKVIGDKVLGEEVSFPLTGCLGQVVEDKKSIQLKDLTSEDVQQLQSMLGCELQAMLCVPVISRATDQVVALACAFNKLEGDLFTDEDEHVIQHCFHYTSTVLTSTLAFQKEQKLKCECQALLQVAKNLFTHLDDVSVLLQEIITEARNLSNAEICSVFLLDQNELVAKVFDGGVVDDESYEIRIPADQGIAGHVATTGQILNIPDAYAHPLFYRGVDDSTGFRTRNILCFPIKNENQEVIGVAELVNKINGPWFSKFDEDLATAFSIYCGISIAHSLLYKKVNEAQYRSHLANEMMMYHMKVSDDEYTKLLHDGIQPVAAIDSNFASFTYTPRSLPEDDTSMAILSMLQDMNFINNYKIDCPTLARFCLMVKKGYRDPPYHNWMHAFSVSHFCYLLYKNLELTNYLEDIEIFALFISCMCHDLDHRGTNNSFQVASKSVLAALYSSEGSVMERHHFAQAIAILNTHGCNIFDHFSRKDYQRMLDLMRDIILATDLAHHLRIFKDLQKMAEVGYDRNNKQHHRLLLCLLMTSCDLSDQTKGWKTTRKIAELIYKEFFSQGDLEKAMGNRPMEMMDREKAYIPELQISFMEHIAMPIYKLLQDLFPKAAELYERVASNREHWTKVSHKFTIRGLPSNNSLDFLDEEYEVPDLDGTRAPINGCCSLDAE
Experimental: Measurement of Recombinant Human PDE2A3 Inhibition by SPA Technology
In the present assay, the activity of the test substances on human full-length PDE2A3 enzyme was determined using the [^3H]-cGMP scintillation proximity assay (SPA) modified from the Amersham TRKQ7100 instructions (GE Healthcare, USA). PDE2A3 protein was obtained from FLAG purification of sf21 insect cells using standard affinity purification procedures for this tag (anti-FLAG M2, Sigma Aldrich). Briefly, the SPA assays were performed using PDE SPA yttrium silicate beads (Perkin Elmer RPNQ0024) which bind preferentially to the linear nucleotide, GMP, compared to the cyclic nucleotide, cGMP. The, ^3H-GMP product was detected using a Wallac MicroBeta scintillation counter. The reaction time was chosen with respect to the amount of time in which 10-20% of substrate was hydrolyzed by the enzyme.
The corresponding IC50 values of the compounds for the inhibition of PDE activities are determined from the concentration-effect curves by means of non-linear regression.

`CCCCCC[C@@H]([C@@H](C)O)n1cnc2c(N)ncnc21` (racemic) [EHNA]: the concentration for half-maximal inhibition (IC50) was 1700 nM.
